Assay results taken from patent publication US8952024B2, “Herbicidal pyrimidone derivatives” (E I du Pont de Nemours and Company, priority 2009, dated 2015).

Tests used:
Type in all cases: in vivo
[1] = system: cocklebur (Xanthium strumarium); assay: Test B pre-/postemergence plant response
Method in brief: (§1)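 Visual ratings on a 0–100 scale (100 = complete control) were made versus untreated controls 13–15 days after treatment in a greenhouse. Compounds in surfactant-containing non-phytotoxic solvent were applied preemergence to seeds in loam–sand blend or postemergence to 1- to 4-leaf plants (2–18 cm).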

[2] = system: goosegrass (Eleusine indica); assay: Test B pre-/postemergence plant response
Method in brief: as §1

kochia (Kochia scoparia) = assay: Test B pre-/postemergence plant response
Method in brief: as §1

[3] = system: downy bromegrass (Bromus tectorum); assay: Test B pre-/postemergence plant response
Method in brief: as §1

[4] = system: giant foxtail (Setaria faberii); assay: Test B pre-/postemergence plant response
Method in brief: as §1

[5] = system: pigweed (Amaranthus retroflexus); assay: Test B pre-/postemergence plant response
Method in brief: as §1

[6] = system: green foxtail (Setaria viridis); assay: Test B pre-/postemergence plant response
Method in brief: as §1

[7] = system: morningglory (Ipomoea coccinea); assay: Test B pre-/postemergence plant response
Method in brief: as §1

[8] = system: wheat (Triticum aestivum); assay: Test B pre-/postemergence plant response
Method in brief: as §1

[9] = system: velvetleaf (Abutilon theophrasti); assay: Test A pre-/postemergence plant response
Method in brief: (§2)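 Injury was scored visually after roughly ten days against untreated controls, 0 = no effect, 100 = complete control. Test chemicals in a surfactant-containing non-phytotoxic solvent were sprayed either onto soil preemergence or onto one- to two-leaf, 2–10 cm plants postemergence.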

[10] = system: morningglory (Ipomoea spp.); assay: Test A pre-/postemergence plant response
Method in brief: as §2

[11] = system: large crabgrass (Digitaria sanguinalis); assay: Test A pre-/postemergence plant response
Method in brief: as §2

[12] = system: wheat (Triticum aestivum); assay: Test A pre-/postemergence plant response
Method in brief: as §2

[13] = 250 g ai/ha, Preemergence, 0 to 100 scale
[14] = Postemergence, 31 g ai/ha, scale 0 to 100 (0 no effect, 100 complete control)
[15] = Postemergence, 62 g ai/ha, scale 0 (no effect) to 100 (complete control), 13 to 15 days
[16] = Postemergence, 125 g ai/ha, visual rating after 13 to 15 days, scale 0 (no effect) to 100 (complete control)
[17] = Postemergence, 250 g ai/ha, scale 0 to 100
[18] = Preemergence, 31 g ai/ha, scale 0 to 100 (0 no effect, 100 complete control)
[19] = Preemergence, 62 g ai/ha, scale 0 to 100, 0 no effect, 100 complete control
[20] = Preemergence, 125 g ai/ha, 0 to 100 scale
[21] = Postemergence, 125 g ai/ha, visual injury, 0 to 100 scale (0 no effect, 100 complete control), approx. ten days
[22] = Postemergence, 500 g ai/ha, 0 to 100 scale, 0 = no effect, 100 = complete control, approx. ten days
[23] = Preemergence, 125 g ai/ha, 0 to 100 scale, 0 = no effect, 100 = complete control
[24] = Preemergence, 500 g ai/ha, visual injury, 0 to 100 scale (0 no effect, 100 complete control), approx. ten days
[25] = Postemergence, 31 g ai/ha, 0 to 100 scale (0 no effect, 100 complete control)
[26] = Postemergence, 125 g ai/ha, scale 0 (no effect) to 100 (complete control), 13 to 15 days
[27] = Postemergence, 250 g ai/ha, scale 0 to 100 (0 no effect, 100 complete control), 13 to 15 days
[28] = Postemergence, 62 g ai/ha, scale 0 to 100 (0 no effect, 100 complete control)
[29] = Postemergence, 125 g ai/ha, 0 to 100 scale where 0 is no effect and 100 is complete control
[30] = Postemergence, 500 g ai/ha, visual injury, 0 to 100 scale (0 no effect, 100 complete control), approx. ten days
[31] = Preemergence, 500 g ai/ha, 0 to 100 scale, 0 = no effect, 100 = complete control

2-(3,5-difluorophenyl)-5-[(2-hydroxy-4-oxobicyclo[3.2.1]oct-2-en-3-yl)carbonyl]-3-(2-methoxyethyl)-4(3H)-pyrimidinone [Compound 243]
100: Plant response rating, Cocklebur [1, 13] | Plant response rating, Goosegrass [2, 13] | Goosegrass plant response rating [2, 17] | Goosegrass plant response rating [2, 20] | Plant response rating, Kochia (kochia (Kochia scoparia); [13]) | Plant response rating, Kochia (kochia (Kochia scoparia); [19]) | Kochia plant response rating (kochia (Kochia scoparia); [20]) | Foxtail, Giant plant response rating [4, 17] | Plant response rating, Pigweed [5, 13] | Plant response rating, Pigweed [5, 16] | Pigweed plant response rating [5, 17] | Plant response rating, Pigweed [5, 19] | Pigweed plant response rating [5, 20] | Velvetleaf plant response rating [9, 21] | Plant response rating, Velvetleaf [9, 22] | Plant response rating, Velvetleaf [9, 24] | Plant response rating, Crabgrass, Large [11, 24]
65: Cocklebur plant response rating [1, 20]
10: Plant response rating, Kochia (kochia (Kochia scoparia); [14]) | Plant response rating, Bromegrass, Downy [3, 13]
60: Plant response rating, Goosegrass [2, 14] | Foxtail, Giant plant response rating [4, 20]
30: Plant response rating, Bromegrass, Downy [3, 15] | Plant response rating, Wheat [8, 16] | Wheat plant response rating [8, 17]
95: Plant response rating, Foxtail, Giant [4, 16] | Foxtail, Green plant response rating [6, 17]
15: Plant response rating, Kochia (kochia (Kochia scoparia); [15]) | Plant response rating, Kochia (kochia (Kochia scoparia); [18]) | Plant response rating, Foxtail, Giant [4, 19]
35: Plant response rating, Cocklebur [1, 16] | Plant response rating, Foxtail, Green [6, 14]
20: Plant response rating, Morningglory [10, 23]
45: Cocklebur plant response rating [1, 17] | Plant response rating, Morningglory [7, 14] | Plant response rating, Morningglory [7, 15]
0: Plant response rating, Cocklebur [1, 14] | Plant response rating, Cocklebur [1, 15] | Plant response rating, Cocklebur [1, 18] | Plant response rating, Bromegrass, Downy [3, 18] | Plant response rating, Bromegrass, Downy [3, 19] | Plant response rating, Foxtail, Giant [4, 18] | Plant response rating, Foxtail, Green [6, 18] | Plant response rating, Foxtail, Green [6, 19] | Plant response rating, Morningglory [7, 18] | Plant response rating, Wheat [8, 14] | Plant response rating, Wheat [8, 18] | Plant response rating, Wheat [8, 19] | Wheat plant response rating [8, 20] | Wheat plant response rating [12, 21] | Plant response rating, Wheat [12, 23] | Plant response rating, Wheat [12, 24]
25: Plant response rating, Cocklebur [1, 19] | Plant response rating, Kochia (kochia (Kochia scoparia); [16])
75: Plant response rating, Goosegrass [2, 18] | Plant response rating, Foxtail, Giant [4, 14] | Morningglory plant response rating [7, 17]
90: Plant response rating, Goosegrass [2, 16] | Plant response rating, Morningglory [10, 22] | Plant response rating, Morningglory [10, 24] | Plant response rating, Crabgrass, Large [11, 22] | Plant response rating, Crabgrass, Large [11, 23]
40: Plant response rating, Bromegrass, Downy [3, 16] | Plant response rating, Foxtail, Green [6, 15] | Plant response rating, Morningglory [7, 19] | Plant response rating, Wheat [12, 22]
85: Plant response rating, Goosegrass [2, 15] | Kochia plant response rating (kochia (Kochia scoparia); [17]) | Plant response rating, Foxtail, Giant [4, 15] | Plant response rating, Pigweed [5, 15]
5: Plant response rating, Bromegrass, Downy [3, 14] | Bromegrass, Downy plant response rating [3, 20] | Foxtail, Green plant response rating [6, 20] | Plant response rating, Wheat [8, 13] | Plant response rating, Wheat [8, 15]
98: Plant response rating, Foxtail, Giant [4, 13] | Plant response rating, Morningglory [7, 13]
80: Plant response rating, Pigweed [5, 14] | Plant response rating, Foxtail, Green [6, 16] | Morningglory plant response rating [10, 21]
70: Plant response rating, Morningglory [7, 16] | Morningglory plant response rating [7, 20] | Plant response rating, Velvetleaf [9, 23] | Crabgrass, Large plant response rating [11, 21]
50: Bromegrass, Downy plant response rating [3, 17] | Plant response rating, Pigweed [5, 18]

CCCCn1c(-c2ccccc2)ncc(C(=O)C2=C(O)C3CCC(C3)C2=O)c1=O (stereo not drawn) [Compound 240]
10: Plant response rating, Bromegrass, Downy [3, 25]
35: Plant response rating, Wheat [8, 28]
80: Plant response rating, Kochia (kochia (Kochia scoparia); [25]) | Plant response rating, Velvetleaf [9, 31]
60: Plant response rating, Velvetleaf [9, 23]
100: Plant response rating, Kochia (kochia (Kochia scoparia); [26]) | Plant response rating, Kochia (kochia (Kochia scoparia); [27]) | Plant response rating, Foxtail, Giant [4, 25] | Plant response rating, Foxtail, Giant [4, 26] | Plant response rating, Foxtail, Giant [4, 27] | Plant response rating, Foxtail, Giant [4, 28] | Plant response rating, Pigweed [5, 26] | Plant response rating, Pigweed [5, 27] | Plant response rating, Pigweed [5, 28] | Plant response rating, Velvetleaf [9, 29] | Velvetleaf plant response rating [9, 30] | Plant response rating, Morningglory [10, 29] | Morningglory plant response rating [10, 30] | Crabgrass, Large plant response rating [11, 30] | Plant response rating, Crabgrass, Large [11, 31]
95: Plant response rating, Goosegrass [2, 25] | Plant response rating, Foxtail, Green [6, 26]
98: Plant response rating, Goosegrass [2, 26] | Plant response rating, Goosegrass [2, 27] | Plant response rating, Goosegrass [2, 28] | Plant response rating, Kochia (kochia (Kochia scoparia); [28]) | Plant response rating, Foxtail, Green [6, 27]
25: Plant response rating, Bromegrass, Downy [3, 26]
50: Plant response rating, Bromegrass, Downy [3, 27] | Plant response rating, Wheat [8, 26] | Plant response rating, Wheat [8, 27] | Plant response rating, Crabgrass, Large [11, 23]
30: Plant response rating, Wheat [8, 25]
20: Plant response rating, Bromegrass, Downy [3, 28] | Plant response rating, Wheat [12, 29]
40: Wheat plant response rating [12, 30] | Plant response rating, Wheat [12, 31]
0: Plant response rating, Morningglory [10, 23] | Plant response rating, Morningglory [10, 31] | Plant response rating, Wheat [12, 23]
90: Plant response rating, Foxtail, Green [6, 25] | Plant response rating, Foxtail, Green [6, 28] | Plant response rating, Crabgrass, Large [11, 29]
